Common to all, as to type: cell-based
In one assay the test system is H358 cells. Kind of assay: Cell viability assay (CELLTITER-GLO), H358 cells. The following applies: Table 4; 3 days. In short, it runs like this: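 Luminescent ATP read-out (CellTiter-Glo) after 3-day incubation at 37 °C of H358 cells plated at 4,000/well in RPMI 1640 with 10% FBS. Values are either IC50 bins (A ≤1 μM through D >10 μM) or % of DMSO viability at 10 μM or 1 μM, bins A <10% through D ≥50%.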
On the technique in general: ATP-based viability assays read luminescence as a measure of living cells.

The next assay has as its system H23 cells. Kind of assay: Cell viability assay (CELLTITER-GLO), H23 cells. The note with it: Table 4; 3 days. In short, it runs like this:
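Luminescent CellTiter-Glo readout after 3-day compound treatment (37° C, 5% CO2) of H23 cells plated at 4,000 cells/well in RPMI 1640 plus 10% FBS, DMSO as control. IC50 values given as categorical ranges.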

The next assay relates to MOLM-13 cells. As to the kind of experiment: Cell viability assay (CELLTITER-GLO), MOLM-13 cells. The following applies: Homo sapiens, MOLM-13, 72 h; Table 2; compound at 10 μM, 3 days; read-out: Effect on MOLM-13 cell viability (% DMSO). In short, it runs like this: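 Viability, as % of DMSO control, was read by CellTiter-Glo luminescence after a 3-day compound exposure (single dose of 10 μM or 1 μM) at 37 °C. Cells plated at 4,000/well in RPMI 1640 with 10% FBS. Results reported as categories A <10%, B 10–<25%, C 25–<50%, D ≥50%.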

Regarding `CC(C)/C=C(\C#N)C(=O)N1CCN(c2ncnc3c(F)c(-c4c(F)cccc4OCCCCCCCN4CCC(c5cc(F)cc6c5CN(C5CCC(=O)NC5=O)C6=O)CC4)c(Cl)cc23)CC1` (stereo not drawn) [Compound 80, (E)-2-(4-(6-Chloro-7-(2-((7-(4-(2-(2,6-dioxopiperidin-3-yl)-6-fluoro-1-oxoisoindolin-4-yl)piperidin-1-yl)heptyl)oxy)-6-fluorophenyl)-8-fluoroquinazolin-4-yl)piperazine-1-carbonyl)-4-methylpent-2-enenitrile], in the assay with H358 cells, the “Inhibition of H358 cells, IC50 (class)” value is “B′”. In addition, in the assay with H23 cells, the “Inhibition of H23 cells, IC50 (class)” value was “B′”. Moreover, the viability (usually a read-out of living cells in per cent, often relative to untreated cells) at 10 µM in the assay with MOLM-13 cells is < 10%.
For `O=C1CCC(N2Cc3c(cc(F)cc3C3CCN(CCCCCCCOc4cccc(F)c4-c4c(Cl)cc5c(N6CCN(C(=O)C7COC7)CC6)ncnc5c4F)CC3)C2=O)C(=O)N1` (stereo not drawn) [Compound 81, 3-(4-(1-(7-(2-(6-Chloro-8-fluoro-4-(4-(oxetane-3-carbonyl)piperazin-1-yl)quinazolin-7-yl)-3-fluorophenoxy)heptyl)piperidin-4-yl)-6-fluoro-1-oxoisoindolin-2-yl)piperidine-2,6-dione], the “Inhibition of H358 cells, IC50 (class)” value in the assay on H358 cells is reported as “C′”. Further, in the assay on H23 cells, the “Inhibition of H23 cells, IC50 (class)” value was “C′”. Further, in the assay with MOLM-13 cells, the viability at 10 µM was ≥ 50%.
For the compound `C=C(F)C(=O)N1CCN(c2ncnc3c(F)c(-c4c(F)cccc4OCCCCCCCN4CCC(c5cc(F)cc6c5CN(C5CCC(=O)NC5=O)C6=O)CC4)c(Cl)cc23)CC1` (stereo not drawn) [Compound 82, 3-(4-(1-(7-(2-(6-Chloro-8-fluoro-4-(4-(2-fluoroacryloyl)piperazin-1-yl)quinazolin-7-yl)-3-fluorophenoxy)heptyl)piperidin-4-yl)-6-fluoro-1-oxoisoindolin-2-yl)piperidine-2,6-dione], the “Inhibition of H358 cells, IC50 (class)” value in the assay on H358 cells is reported as “B′”. Besides, the “Inhibition of H23 cells, IC50 (class)” value in the assay on H23 cells is “B′”. Further, the viability at 10 µM in the assay on MOLM-13 cells is < 10%.
Regarding `NC(=O)N1CCN(c2ncnc3c(F)c(-c4c(F)cccc4OCCCCCCCN4CCC(c5cc(F)cc6c5CN(C5CCC(=O)NC5=O)C6=O)CC4)c(Cl)cc23)CC1` (stereo not drawn) [Compound 83, 4-(6-Chloro-7-(2-((7-(4-(2-(2,6-dioxopiperidin-3-yl)-6-fluoro-1-oxoisoindolin-4-yl)piperidin-1-yl)heptyl)oxy)-6-fluorophenyl)-8-fluoroquinazolin-4-yl)piperazine-1-carboxamide], the “Inhibition of H358 cells, IC50 (class)” value in the assay with H358 cells is recorded as “B′”. In addition, the “Inhibition of H23 cells, IC50 (class)” value in the assay on H23 cells is listed as “B′”. Besides, the viability at 10 µM in the assay with MOLM-13 cells is < 10%.
For `CCC(=O)N1CCN(c2ncnc3c(F)c(-c4c(F)cccc4OCCC4CCC(CCN5CCC(c6cc(F)cc7c6CN(C6CCC(=O)NC6=O)C7=O)CC5)CC4)c(Cl)cc23)CC1` (stereo not drawn) [Compound 84, 3-(4-(1-(2-(4-(2-(2-(6-Chloro-8-fluoro-4-(4-propionylpiperazin-1-yl)quinazolin-7-yl)-3-fluorophenoxy)ethyl)cyclohexyl)ethyl)piperidin-4-yl)-6-fluoro-1-oxoisoindolin-2-yl)piperidine-2,6-dione], the “Inhibition of H358 cells, IC50 (class)” value in the assay on H358 cells is listed as “B′”. Besides, the “Inhibition of H23 cells, IC50 (class)” value in the assay on H23 cells is listed as “B′”. In the assay on MOLM-13 cells, the viability at 10 µM was < 10%.
`CCC(=O)N1CCN(c2ncnc3c(F)c(-c4c(F)cccc4OCCCCCCCN4CCC(c5cc(F)cc6c5CN(C5CCC(=O)NC5=O)C6=O)CC4)c(Cl)cc23)[C@@H](C)C1` (stereo partly drawn) [Compound 85, 3-(4-(1-(7-(2-(6-Chloro-8-fluoro-4-((S)-2-methyl-4-propionylpiperazin-1-yl)quinazolin-7-yl)-3-fluorophenoxy)heptyl)piperidin-4-yl)-6-fluoro-1-oxoisoindolin-2-yl)piperidine-2,6-dione]: the “Inhibition of H358 cells, IC50 (class)” value with H358 cells was “B′”. Besides, the “Inhibition of H23 cells, IC50 (class)” value with H23 cells was “B′”. The viability at 10 µM in the assay on MOLM-13 cells is < 10%.
For the compound `CCC(=O)N1CCN(c2ncnc3c(F)c(-c4c(F)cccc4OCCCCCCCN4CCCC(c5cc(F)cc6c5CN(C5CCC(=O)NC5=O)C6=O)C4)c(Cl)cc23)CC1` (stereo not drawn) [Compound 87, 3-(4-(1-(7-(2-(6-Chloro-8-fluoro-4-(4-propionylpiperazin-1-yl)quinazolin-7-yl)-3-fluorophenoxy)heptyl)piperidin-3-yl)-6-fluoro-1-oxoisoindolin-2-yl)piperidine-2,6-dione], the “Inhibition of H358 cells, IC50 (class)” value with H358 cells is “B′”. In the assay on H23 cells, the “Inhibition of H23 cells, IC50 (class)” value is on record as “B′”. Further, the viability at 10 µM in the assay with MOLM-13 cells was < 10%.
Take `C=CC(=O)N1CCN(c2nc(OC[C@@H]3CCCN3C)nc3c(F)c(-c4c(F)cccc4OCCCCCCCN4CCC(c5cc(F)cc6c5CN(C5CCC(=O)NC5=O)C6=O)CC4)c(Cl)cc23)CC1` (stereo partly drawn) [Compound 88, 3-(4-(1-(7-(2-(4-(4-Acryloylpiperazin-1-yl)-6-chloro-8-fluoro-2-(((S)-1-methylpyrrolidin-2-yl)methoxy)quinazolin-7-yl)-3-fluorophenoxy)heptyl)piperidin-4-yl)-6-fluoro-1-oxoisoindolin-2-yl)piperidine-2,6-dione]: the “Inhibition of H358 cells, IC50 (class)” value in the assay on H358 cells is recorded as “A′”. Further, the “Inhibition of H23 cells, IC50 (class)” value in the assay on H23 cells is “B′”. The viability at 10 µM in the assay on MOLM-13 cells is < 10%.
In the same order, the values of `CCC(=O)N1CCN(c2nc(OC[C@@H]3CCCN3C)nc3c(F)c(-c4c(F)cccc4OCCCCCCCN4CCC(c5cc(F)cc6c5CN(C5CCC(=O)NC5=O)C6=O)CC4)c(Cl)cc23)CC1` (stereo partly drawn) [Compound 89, 3-(4-(1-(7-(2-(6-Chloro-8-fluoro-2-(((S)-1-methylpyrrolidin-2-yl)methoxy)-4-(4-propionylpiperazin-1-yl)quinazolin-7-yl)-3-fluorophenoxy)heptyl)piperidin-4-yl)-6-fluoro-1-oxoisoindolin-2-yl)piperidine-2,6-dione] are “B′”, “B′” and < 10%.
In the same order, the values of `C=CC(=O)N1CCN(c2ncnc3c(F)c(-c4cc(OCCCCCCCN5CCC(c6cc(F)cc7c6CN(C6CCC(=O)NC6=O)C7=O)CC5)ccc4F)c(Cl)cc23)CC1` (stereo not drawn) [Compound 90, 3-(4-(1-(7-(3-(4-(4-Acryloylpiperazin-1-yl)-6-chloro-8-fluoroquinazolin-7-yl)-4-fluorophenoxy)heptyl)piperidin-4-yl)-6-fluoro-1-oxoisoindolin-2-yl)piperidine-2,6-dione] are “B′”, “B′” and < 10%.
In the same order, the values of `CCC(=O)N1CCN(c2ncnc3c(F)c(-c4cc(OCCCCCCCN5CCC(c6cc(F)cc7c6CN(C6CCC(=O)NC6=O)C7=O)CC5)ccc4F)c(Cl)cc23)CC1` (stereo not drawn) [Compound 91, 3-(4-(1-(7-(3-(6-Chloro-8-fluoro-4-(4-propionylpiperazin-1-yl)quinazolin-7-yl)-4-fluorophenoxy)heptyl)piperidin-4-yl)-6-fluoro-1-oxoisoindolin-2-yl)piperidine-2,6-dione] are “B′”, “B′” and < 10%.
Take `CCC(=O)N1CCN(c2ncnc3c(F)c(-c4c(F)cccc4OCCc4cn(CCN5CCC(c6cc(F)cc7c6CN(C6CCC(=O)NC6=O)C7=O)CC5)nn4)c(Cl)cc23)CC1` (stereo not drawn) [Compound 92, 3-(4-(1-(2-(4-(2-(2-(6-Chloro-8-fluoro-4-(4-propionylpiperazin-1-yl)quinazolin-7-yl)-3-fluorophenoxy)ethyl)-1H-1,2,3-triazol-1-yl)ethyl)piperidin-4-yl)-6-fluoro-1-oxoisoindolin-2-yl)piperidine-2,6-dione]: the “Inhibition of H358 cells, IC50 (class)” value with H358 cells is “C′”. Besides, the “Inhibition of H23 cells, IC50 (class)” value with H23 cells is “D′”. In the assay with MOLM-13 cells, the viability at 10 µM was ≥ 50%.

Source of the values: US12630547B2, “RAS protein degraders, pharmaceutical compositions thereof, and their therapeutic applications” (BioTheryX, Inc., priority 2019, dated 2026).
